Assay results reported in ChEMBL document CHEMBL1136111 (Bioorg Med Chem Lett, 2003).
Values after ≈ are worked out from the molar mass of the structure shown.

What was measured:
Klebsiella pneumoniae [1] = assay: Minimum inhibitory concentration against Klebsiella pneumoniae KL21; assay type: functional
Streptococcus pneumoniae [2] = assay: Minimum inhibitory concentration against Streptococcus pneumoniae (PR; Penicillin resistant) STP51; assay type: functional
Staphylococcus aureus [3] = assay: Minimum inhibitory concentration against Staphylococcus aureus (MSCS; Methicillin sensitive, ciprofloxacin sensitive) MI246; assay type: functional
Staphylococcus aureus [4] = assay: Minimum inhibitory concentration against Staphylococcus aureus (MRCR; Methicillin resistant, ciprofloxacin resistant) MI339
Escherichia coli [5] = assay: Minimum inhibitory concentration against Escherichia coli DC0; assay type: functional
Enterococcus faecium [6] = assay: Minimum inhibitory concentration against Enterococcus faecium (VR; Vancomycin resistant) EF12; assay type: functional
[7] = target: DNA gyrase (Escherichia coli); assay: Inhibitory activity against wild type gyrase in Escherichia coli
Enterobacter cloacae [8] = assay: Minimum inhibitory concentration against Enterobacter cloacae AE63; assay type: functional
Klebsiella pneumoniae [9] = assay: Minimum inhibitory concentration against Klebsiella pneumoniae (CR; Ciprofloxacin resistant) KL328; assay type: functional
DNA topoisomerase II = DNA topoisomerase II (Homo sapiens, UniProt P11388+Q02880); assay: Inhibitory activity against mammalian DNA topoisomerase II; assay type: protein assay
[10] = target: DNA gyrase (Escherichia coli); assay: Inhibitory activity against quinolone resistant gyrase in Escherichia coli
Staphylococcus aureus [11] = assay: Minimum inhibitory concentration against Staphylococcus aureus (MRCS; Methicillin resistant, ciprofloxacin sensitive) MI300; assay type: functional
Proteus mirabilis = assay: Minimum inhibitory concentration against Proteus mirabilis PR91; assay type: functional
Staphylococcus aureus [12] = assay: Minimum inhibitory concentration against Staphylococcus aureus (MSCR; Methicillin sensitive, ciprofloxacin resistant) MI345; assay type: functional
Enterococcus faecium [13] = assay: Minimum inhibitory concentration against Enterococcus faecium (VS; Vancomycin sensitive) EF1; assay type: functional
Streptococcus pyogenes = assay: Minimum inhibitory concentration against Streptococcus pyogenes STA2; assay type: functional
[14] = system: Staphylococcus saprophyticus; assay: Minimum inhibitory concentration against Staphylococcus saprophyticus SS276; assay type: functional
Moraxella catarrhalis = assay: Minimum inhibitory concentration against Moraxella catarrhalis MC2; assay type: functional
Enterococcus faecalis [15] = assay: Minimum inhibitory concentration against Enterococcus faecalis STD44
[16] = system: Staphylococcus epidermidis; assay: Minimum inhibitory concentration against Staphylococcus epidermidis (MSCR; Methicillin sensitive, ciprofloxacin resistant) SE48; assay type: functional
Escherichia coli [17] = assay: Minimum inhibitory concentration against Escherichia coli ES142; assay type: functional
Escherichia coli [18] = assay: Minimum inhibitory concentration against Escherichia coli DC2; assay type: functional
Streptococcus pneumoniae [19] = assay: Minimum inhibitory concentration against Streptococcus pneumoniae (PS; Penicillin sensitive) STP6301; assay type: functional
Staphylococcus aureus [20] = assay: Minimum inhibitory concentration against Staphylococcus aureus (MSCS; Methicillin sensitive, ciprofloxacin sensitive) MI273; assay type: functional
Streptococcus viridans = assay: Minimum inhibitory concentration against Streptococcus viridans STV1; assay type: functional
Pseudomonas aeruginosa = assay: Minimum inhibitory concentration against Pseudomonas aeruginosa PS96; assay type: functional
Streptococcus pneumoniae [21] = assay: Minimum inhibitory concentration against Streptococcus pneumoniae PS; Penicillin sensitive) STP64; assay type: functional
Enterococcus faecalis [22] = assay: Minimum inhibitory concentration against Enterococcus faecalis STD44; MIC (ug/mL) No growth
Enterococcus faecium [23] = assay: Minimum inhibitory concentration against Enterococcus faecium (VR; Vancomycin resistant) EF12; MIC (ug/mL) No growth; assay type: functional, organism-based
Enterobacter cloacae [24] = assay: Minimum inhibitory concentration against Enterobacter cloacae AE63; MIC (ug/mL) No growth; assay type: functional, organism-based
Streptococcus pneumoniae [25] = assay: Minimum inhibitory concentration against Streptococcus pneumoniae (PS; Penicillin sensitive) STP6301; MIC (ug/mL) No growth; assay type: functional, organism-based

C[C@H]1COc2c(N3CC[C@@H](C(C)(C)N)C3)ccc3c(=O)c(C(=O)O)cn1c23
MIC (Klebsiella pneumoniae [1]): 0.031 µg/mL (≈ 0.0835 µM)
MIC (Streptococcus pneumoniae [2]): 0.5 µg/mL (≈ 1.35 µM)
MIC (Staphylococcus aureus [3]): 0.063 µg/mL (≈ 0.17 µM)
MIC (Staphylococcus aureus [4]): 2 µg/mL (≈ 5.38 µM)
MIC (Escherichia coli [5]): 4 µg/mL (≈ 10.8 µM)
MIC (Enterococcus faecium [6]): 1 µg/mL (≈ 2.69 µM)
IC50 [7]: 3.2 µg/mL (≈ 8.62 µM)
MIC (Enterobacter cloacae [8]): 0.25 µg/mL (≈ 0.673 µM)
MIC (Klebsiella pneumoniae [9]): > 8 µg/mL
IC50 (DNA topoisomerase II): 150 µg/mL (≈ 404 µM)
IC50 [10]: > 102 µg/mL
MIC (Staphylococcus aureus [11]): 0.063 µg/mL (≈ 0.17 µM)
MIC (Proteus mirabilis): 4 µg/mL (≈ 10.8 µM)
MIC (Staphylococcus aureus [12]): 2 µg/mL (≈ 5.38 µM)
MIC (Enterococcus faecium [13]): 1 µg/mL (≈ 2.69 µM)
MIC (Streptococcus pyogenes): 0.016 µg/mL (≈ 0.0431 µM)
MIC [14]: 0.031 µg/mL (≈ 0.0835 µM)
MIC (Moraxella catarrhalis): 0.063 µg/mL (≈ 0.17 µM)
MIC (Enterococcus faecalis [15]): 0.125 µg/mL (≈ 0.337 µM)
MIC [16]: 1 µg/mL (≈ 2.69 µM)
MIC (Escherichia coli [17]): 0.5 µg/mL (≈ 1.35 µM)
MIC (Escherichia coli [18]): 0.125 µg/mL (≈ 0.337 µM)
MIC (Streptococcus pneumoniae [19]): 0.016 µg/mL (≈ 0.0431 µM)
MIC (Staphylococcus aureus [20]): 0.125 µg/mL (≈ 0.337 µM)
MIC (Streptococcus viridans): 1 µg/mL (≈ 2.69 µM)
MIC (Pseudomonas aeruginosa): 4 µg/mL (≈ 10.8 µM)

C[C@H]1COc2c(N3CCC[C@H](N)C3)ccc3c(=O)c(C(=O)O)cn1c23
MIC (Klebsiella pneumoniae [1]): 0.25 µg/mL (≈ 0.728 µM)
MIC (Staphylococcus aureus [3]): 2 µg/mL (≈ 5.82 µM)
MIC (Staphylococcus aureus [4]): > 32 µg/mL
MIC (Escherichia coli [5]): 16 µg/mL (≈ 46.6 µM)
MIC (Streptococcus pneumoniae [21]): > 32 µg/mL
IC50 [7]: 63 µg/mL (≈ 183 µM)
MIC (Enterobacter cloacae [8]): 0.25 µg/mL (≈ 0.728 µM)
MIC (Klebsiella pneumoniae [9]): > 32 µg/mL
IC50 (DNA topoisomerase II): > 500 µg/mL
IC50 [10]: > 500 µg/mL
MIC (Staphylococcus aureus [11]): 2 µg/mL (≈ 5.82 µM)
MIC (Proteus mirabilis): 2 µg/mL (≈ 5.82 µM)
MIC (Enterococcus faecalis [22]): No growth
MIC (Staphylococcus aureus [12]): > 32 µg/mL
MIC (Enterococcus faecium [13]): > 32 µg/mL
MIC (Streptococcus pyogenes): > 32 µg/mL
MIC (Enterococcus faecium [23]): No growth
MIC [14]: 16 µg/mL (≈ 46.6 µM)
MIC (Moraxella catarrhalis): 2 µg/mL (≈ 5.82 µM)
MIC [16]: > 32 µg/mL
MIC (Escherichia coli [17]): 1 µg/mL (≈ 2.91 µM)
MIC (Escherichia coli [18]): 2 µg/mL (≈ 5.82 µM)
MIC (Streptococcus pneumoniae [19]): > 32 µg/mL
MIC (Staphylococcus aureus [20]): 4 µg/mL (≈ 11.6 µM)
MIC (Streptococcus viridans): > 32 µg/mL
MIC (Pseudomonas aeruginosa): > 32 µg/mL

C[C@H]1COc2c(N3CCN(C)CC3)ccc3c(=O)c(C(=O)O)cn1c23
MIC (Klebsiella pneumoniae [1]): 1 µg/mL (≈ 2.91 µM)
MIC (Streptococcus pneumoniae [2]): 32 µg/mL (≈ 93.2 µM)
MIC (Staphylococcus aureus [3]): 4 µg/mL (≈ 11.6 µM)
MIC (Staphylococcus aureus [4]): > 32 µg/mL
MIC (Escherichia coli [5]): > 32 µg/mL
MIC (Streptococcus pneumoniae [21]): 16 µg/mL (≈ 46.6 µM)
IC50 [7]: 31 µg/mL (≈ 90.3 µM)
MIC (Klebsiella pneumoniae [9]): > 32 µg/mL
IC50 (DNA topoisomerase II): 250 µg/mL (≈ 728 µM)
IC50 [10]: > 500 µg/mL
MIC (Staphylococcus aureus [11]): 4 µg/mL (≈ 11.6 µM)
MIC (Proteus mirabilis): 8 µg/mL (≈ 23.3 µM)
MIC (Enterococcus faecalis [22]): No growth
MIC (Staphylococcus aureus [12]): > 32 µg/mL
MIC (Enterobacter cloacae [24]): No growth
MIC (Enterococcus faecium [13]): > 32 µg/mL
MIC (Streptococcus pyogenes): 4 µg/mL (≈ 11.6 µM)
MIC (Enterococcus faecium [23]): No growth
MIC [14]: 4 µg/mL (≈ 11.6 µM)
MIC (Moraxella catarrhalis): 4 µg/mL (≈ 11.6 µM)
MIC [16]: > 32 µg/mL
MIC (Escherichia coli [17]): 8 µg/mL (≈ 23.3 µM)
MIC (Escherichia coli [18]): 16 µg/mL (≈ 46.6 µM)
MIC (Streptococcus pneumoniae [19]): 16 µg/mL (≈ 46.6 µM)
MIC (Staphylococcus aureus [20]): 8 µg/mL (≈ 23.3 µM)
MIC (Streptococcus viridans): 32 µg/mL (≈ 93.2 µM)
MIC (Pseudomonas aeruginosa): > 32 µg/mL

C[C@H]1COc2c(N3CCN(C)CC3)c(F)cc3c(=O)c(C(=O)O)cn1c23.C[C@H]1COc2c(N3CCN(C)CC3)c(F)cc3c(=O)c(C(=O)O)cn1c23.O [LEVOFLOXACIN]
MIC (Klebsiella pneumoniae [1]): < 0.004 µg/mL
MIC (Staphylococcus aureus [3]): 0.12 µg/mL
MIC (Staphylococcus aureus [4]): 2 µg/mL
MIC (Escherichia coli [5]): 0.25 µg/mL
MIC (Enterococcus faecium [6]): 1 µg/mL
MIC (Enterobacter cloacae [8]): 0.008 µg/mL
MIC (Klebsiella pneumoniae [9]): 4 µg/mL
MIC (Staphylococcus aureus [11]): 0.12 µg/mL
MIC (Proteus mirabilis): 0.06 µg/mL
MIC (Staphylococcus aureus [12]): 2 µg/mL
MIC (Enterococcus faecium [13]): 0.25 µg/mL
MIC (Streptococcus pyogenes): 0.5 µg/mL
MIC [14]: 0.12 µg/mL
MIC (Moraxella catarrhalis): 0.03 µg/mL
MIC (Enterococcus faecalis [15]): 0.25 µg/mL
MIC [16]: 2 µg/mL
MIC (Escherichia coli [18]): 0.25 µg/mL
MIC (Staphylococcus aureus [20]): 0.12 µg/mL
MIC (Streptococcus viridans): 0.25 µg/mL
MIC (Pseudomonas aeruginosa): 0.5 µg/mL

C[C@H](N)[C@@H]1CCN(c2ccc3c(=O)c(C(=O)O)cn4c3c2OC[C@@H]4C)C1
MIC (Klebsiella pneumoniae [1]): 0.016 µg/mL (≈ 0.0448 µM)
MIC (Streptococcus pneumoniae [2]): 0.063 µg/mL (≈ 0.176 µM)
MIC (Staphylococcus aureus [3]): 0.031 µg/mL (≈ 0.0867 µM)
MIC (Staphylococcus aureus [4]): 2 µg/mL (≈ 5.6 µM)
MIC (Escherichia coli [5]): 2 µg/mL (≈ 5.6 µM)
MIC (Enterococcus faecium [6]): 1 µg/mL (≈ 2.8 µM)
IC50 [7]: 6.4 µg/mL (≈ 17.9 µM)
MIC (Enterobacter cloacae [8]): 0.125 µg/mL (≈ 0.35 µM)
MIC (Klebsiella pneumoniae [9]): > 8 µg/mL
IC50 (DNA topoisomerase II): 38 µg/mL (≈ 106 µM)
MIC (Streptococcus pneumoniae [25]): No growth
IC50 [10]: 51.2 µg/mL (≈ 143 µM)
MIC (Staphylococcus aureus [11]): 0.063 µg/mL (≈ 0.176 µM)
MIC (Proteus mirabilis): 2 µg/mL (≈ 5.6 µM)
MIC (Staphylococcus aureus [12]): 1 µg/mL (≈ 2.8 µM)
MIC (Enterococcus faecium [13]): 1 µg/mL (≈ 2.8 µM)
MIC (Streptococcus pyogenes): 0.016 µg/mL (≈ 0.0448 µM)
MIC [14]: 0.125 µg/mL (≈ 0.35 µM)
MIC (Moraxella catarrhalis): 0.125 µg/mL (≈ 0.35 µM)
MIC (Enterococcus faecalis [15]): 0.031 µg/mL (≈ 0.0867 µM)
MIC [16]: 1 µg/mL (≈ 2.8 µM)
MIC (Escherichia coli [17]): 0.5 µg/mL (≈ 1.4 µM)
MIC (Escherichia coli [18]): 0.063 µg/mL (≈ 0.176 µM)
MIC (Staphylococcus aureus [20]): 0.125 µg/mL (≈ 0.35 µM)
MIC (Streptococcus viridans): 0.125 µg/mL (≈ 0.35 µM)
MIC (Pseudomonas aeruginosa): 1 µg/mL (≈ 2.8 µM)
